Publication PMC2939770 (Bioorganic & Medicinal Chemistry, 2010)

Legend:
6PGDH = tested on: 6PGDH; parameters: method as in PMID 9307279; details: might bind to the cofactor binding site; cited from earlier work
T. brucei 6PGDH [1] = molecular target: T1, T. brucei 6PGDH (Trypanosoma brucei brucei, UniProt P31072); details: for Hill slope: slope of the IC50 curve, recombinant Tb6PGDH; for Ligand efficiency: −RTLn(IC50)/HAC, HAC: heavy atom count; for confirmation of enzyme inhibition on re-test: second round, repurchased hits of the first screening
T1 sequence (P31072 1-479): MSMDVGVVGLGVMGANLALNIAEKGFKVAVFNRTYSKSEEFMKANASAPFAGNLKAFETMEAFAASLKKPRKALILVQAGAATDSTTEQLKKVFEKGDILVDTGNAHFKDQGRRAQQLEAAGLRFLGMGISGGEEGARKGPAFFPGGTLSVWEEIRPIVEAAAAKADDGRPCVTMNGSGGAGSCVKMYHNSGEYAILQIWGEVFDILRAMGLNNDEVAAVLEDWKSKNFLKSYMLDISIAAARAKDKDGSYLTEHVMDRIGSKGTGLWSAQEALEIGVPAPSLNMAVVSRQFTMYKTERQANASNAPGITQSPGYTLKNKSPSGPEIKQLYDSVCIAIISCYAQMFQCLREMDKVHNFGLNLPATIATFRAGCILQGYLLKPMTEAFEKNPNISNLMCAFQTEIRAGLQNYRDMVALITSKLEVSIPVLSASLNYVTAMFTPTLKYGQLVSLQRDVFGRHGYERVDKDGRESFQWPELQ
Description: (§1) Inhibition studies involved a reaction in 50 mM triethanolamine pH 7.0, 2 mM MgCl2. NADPH and 6PG were each at 20 μM. Total reaction volume was 1 ml. The reaction was followed in a Perkin Elmer UV–vis spectrophotometer. Compounds were dissolved in DMSO and initially added at 200 μM, then 50 μM.

T. brucei 6PGDH [2] = molecular target: T1, T. brucei 6PGDH; assay: biochemical
Description: as §1

NC(=O)c1ccc(N)nc1 [6-aminonicotinamide]
inhibition of 6PGDH (6PGDH): potential inhibitor of 6PGDH

CCOC(=O)c1[nH]c(C(=O)O)c(C)c1C [Compound 1]
Hill slope (T. brucei 6PGDH [1]): 1.6
Ligand efficiency (T. brucei 6PGDH [1]): 0.40 (kcal/mol)/HAC
IC50 (T. brucei 6PGDH [2]): 45 ± 11 µM

O=C(O)c1cc(Cl)c[nH]1 [Compound 2]
Hill slope (T. brucei 6PGDH [1]): 1.8
Ligand efficiency (T. brucei 6PGDH [1]): 0.66 (kcal/mol)/HAC
IC50 (T. brucei 6PGDH [2]): 43 ± 9 µM

Cc1oc([N+](=O)[O-])cc1C(=O)O [Compound 3]
Hill slope (T. brucei 6PGDH [1]): 1.5
Ligand efficiency (T. brucei 6PGDH [1]): 0.52 (kcal/mol)/HAC
IC50 (T. brucei 6PGDH [2]): 28 ± 6 µM

NC(=O)N1CCCC1C(=O)O (centres unmarked) [Compound 4]
confirmation of enzyme inhibition on re-test (T. brucei 6PGDH [1]): did not confirm the previous reported activity

NC(C(=O)O)c1ccsc1 (centres unmarked) [Compound 5]
confirmation of enzyme inhibition on re-test (T. brucei 6PGDH [1]): did not confirm the previous reported activity

NC(CS(=O)(=O)O)C(=O)O (centres unmarked) [Compound 10]
confirmation of enzyme inhibition on re-test (T. brucei 6PGDH [1]): did not confirm the previous reported activity

O=C1CC(S(=O)(=O)[O-])c2ccccc2/C1=N/O.[Na+] (centres unmarked) [Compound 11]
Hill slope (T. brucei 6PGDH [1]): 1.4
Ligand efficiency (T. brucei 6PGDH [1]): 0.33 (kcal/mol)/HAC
IC50 (T. brucei 6PGDH [2]): 73 ± 9 µM

Cc1c(C(=O)O)oc2c1C(=O)CSC2 [Compound 12]
Hill slope (T. brucei 6PGDH [1]): 1.7
Ligand efficiency (T. brucei 6PGDH [1]): 0.42 (kcal/mol)/HAC
IC50 (T. brucei 6PGDH [2]): 51 ± 3 µM

O=C(O)c1cc2sccc2[nH]1 [Compound 13]
Hill slope (T. brucei 6PGDH [1]): 1.1
Ligand efficiency (T. brucei 6PGDH [1]): 0.54 (kcal/mol)/HAC
IC50 (T. brucei 6PGDH [2]): 42 ± 7 µM

Cc1c(C(=O)O)[nH]c(-c2[nH]c(C(=O)O)c(C)c2C)c1C [Compound 14]
Hill slope (T. brucei 6PGDH [1]): 1.4
Ligand efficiency (T. brucei 6PGDH [1]): 0.27 (kcal/mol)/HAC
IC50 (T. brucei 6PGDH [2]): 114 ± 27 µM

O=C(O)C(=Cc1ccc([N+](=O)[O-])o1)C(=O)O [Compound 15]
Hill slope (T. brucei 6PGDH [1]): 5.2
Ligand efficiency (T. brucei 6PGDH [1]): 0.36 (kcal/mol)/HAC
IC50 (T. brucei 6PGDH [2]): 56 ± 6 µM

O=C1C=C(S(=O)(=O)[O-])c2ccccc2C1=O.[K+] [Compound 16]
Hill slope (T. brucei 6PGDH [1]): 4.8

N#C/C(=C\c1ccc([N+](=O)[O-])o1)C(=O)O [Compound 17]
Hill slope (T. brucei 6PGDH [1]): 2.0
Ligand efficiency (T. brucei 6PGDH [1]): 0.48 (kcal/mol)/HAC
IC50 (T. brucei 6PGDH [2]): 5.8 ± 0.6 µM

O=C(O)c1cc(Cl)c(Cl)[nH]1 [Compound 18]
Hill slope (T. brucei 6PGDH [1]): 2.1
Ligand efficiency (T. brucei 6PGDH [1]): 0.60 (kcal/mol)/HAC
IC50 (T. brucei 6PGDH [2]): 42 ± 3.7 µM
